Laboratory results from article PMC3836994, “Killer Bee Molecules: Antimicrobial Peptides as Effector Molecules to Target Sporogonic Stages of Plasmodium” (PLoS Pathogens, 2013).
No end group written: not given here.

Columns and labels:
[1] = system: Anopheles gambiae Sua 4.0 cells; assay: Sua 4.0 mosquito cell viability (erythrosin B exclusion); type: cell-based; parameters: dose or concentration left out as unconfirmed; details: after 48 h culture; for Average viability of cells (3 replicates), peptide: erythrosin B exclusion, 100 cells in triplicate wells; for Reduction in cell viability: versus control
Procedure: To establish potential effects of AMPs on mosquito cells, the An. gambiae Sua 4.0 cell line was used. This facilitated an initial high-throughput screening and provided insights into AMP toxicity, mode of action (lytic or other) and speed of action. Sua 4.0 cells were maintained at 27°C in Schneider's insect medium supplemented with 10% FBS (foetal bovine serum) in T25 culture flasks (Fisher, UK).
Each AMP was tested separately to establish if it affected cell viability and growth. […] Cells were maintained for 3, 6, 24 or 48 h, after which they were resuspended and a sub-sample from duplicate wells counted using a haemocytometer. To establish cell viability after 48 h (whether simply arrested in development or non-viable), resuspended cells were added to an equal volume of 5% erythrosin B vital dye and viable cells excluding the stain were counted. The viability of 100 cells in triplicate wells was recorded. Each AMP assay was performed in triplicate and included a negative control minus the peptide (5 µl of water alone added to the medium) and a further control of 5 µl of 10% SDS (sodium dodecyl sulphate) substituted for the AMP as this causes 100% cell lysis.

P. berghei ookinetes = assay: P. berghei ookinete viability in vitro (erythrosin B); type: cell-based, Plasmodium berghei; details: 30 min; for Reduction in ookinete viability: versus control
Procedure: Our primary aim was to target parasites in mosquitoes before they cross the midgut wall, therefore AMPs were first assessed for their ability to kill ookinetes in vitro. […] Ookinete cultures of P. berghei were established from gametocytaemic blood as previously described. Parasites were enriched using cold 0.17M ammonium chloride after 18 h of culture and washed thoroughly with PBS (phosphate buffered saline). Parasites were seeded in triplicate wells of a 96-well microtitre plate at a density of 1×10^5/ml in a volume of 47.5 µl Schneider's insect medium (Invitrogen) with 2.5 µl of the test AMP (final concentration of 50 µM). Ookinetes were incubated for 30 min in conjunction with triplicate control wells containing medium with 2.5 µl of water instead of AMP. A sub-sample of parasites was then added to an equal volume of 5% erythrosin B to assess viability (150 ookinetes in total, taken from 3 wells). Each of the 33 AMPs was screened in this way and assays were performed 3 times. AMPs displaying a high degree of toxicity (>90% of ookinetes displaying erythrosin B staining) underwent further ookinete assays using a concentration of 100 µM AMP. To assess synergistic effects, combinations of two peptides were also tested at a concentration of 25 µM per AMP, in the assay described above.

P. falciparum = assay: Cultured P. falciparum gametocytes membrane-fed to An. gambiae (oocyst prevalence and intensity); type: in vivo, Plasmodium falciparum; details: 50 µM; for Oocyst intensity (mean number of oocysts per gut, range in parentheses), peptide / Oocyst prevalence (oocyst positive mosquitoes), peptide: cultured gametocytes, An. gambiae
Procedure: P. falciparum NF54 gametocytes were produced through large-scale automated culture at the Pasteur Institute, Paris, [69]. Gametocytes were grown in 10 ml RPMI 1640 medium (Invitrogen), supplemented with 25 mM HEPES and L-glutamine, 10% heat-inactivated human serum and hypoxanthine (20 mg/L) under a constant gas supply (5% CO2, 1% O2, 94% N2). Fresh red blood cells (RBCs) were added to obtain a 7% haematocrit. Fourteen days after initiating the culture, gametocyte maturity was assessed on thin Giemsa-stained blood smears, and male gametocyte maturity verified by exflagellation tests. Gametocyte cultures were centrifuged for 5 min at 1500 rpm and the ∼500–600 µl pellet resuspended in fresh RBCs and AB human serum to give a final haematocrit of 40%.
Blood containing mature gametocytes (475 µl) was added to 25 µl of the test AMP (50 µM final concentration). Peptides were replaced by 25 µl of sterile deionized water for each control. The blood/parasite/peptide mixture was placed in a Hemotek membrane feeder, previously warmed to 37°C. For each feed, 70 to 100 nulliparous female An. gambiae mosquitoes were left to feed in the dark for 15 min and only fully engorged females were transferred to small cages and provided with 10% sucrose containing 0.05% PABA. After 8 days, 30 midguts were dissected and stained with bromo fluorescein for the detection of oocysts.

[2] = 50 µM of single peptide, n = 150 ookinetes per treatment per replicate

Sequence | Average viability of cells (3 replicates), peptide [1] [%] | Reduction in cell viability [1] [%] | Average ookinete viability (3 reps), peptide (P. berghei ookinetes; [2]) [%] | Reduction in ookinete viability (P. berghei ookinetes; 50 µM of single peptide) [%] | Oocyst intensity (mean number of oocysts per gut, range in parentheses), peptide (P. falciparum; Replicate 1) | Oocyst prevalence (oocyst positive mosquitoes), peptide (P. falciparum; Replicate 1, dissected after 8 days) | Oocyst intensity (mean number of oocysts per gut, range in parentheses), peptide (P. falciparum; Replicate 2) | Oocyst prevalence (oocyst positive mosquitoes), peptide (P. falciparum; Replicate 2) | Oocyst intensity (mean number of oocysts per gut, range in parentheses), peptide (P. falciparum; Replicate 3) | Oocyst prevalence (oocyst positive mosquitoes), peptide (P. falciparum; Replicate 3) | Average reduction of intensity of infection (P. falciparum; over three replicates) [%] | Average reduction of prevalence (P. falciparum; over three replicates) [%] | Average viability of cells (3 replicates), peptide ([1]; listed as Vida3 dimer) | Average ookinete viability (3 reps), peptide (P. berghei ookinetes; 100 µM of single peptide) [%] | Reduction in ookinete viability (P. berghei ookinetes; 100 µM of single peptide) [%] | Reduction in ookinete viability (P. berghei ookinetes; 100 µM of single peptide, listed as Vida3 dimer) [%]
AGYLLGKINLKALAALAKKILGGAGYLLGKINLKALAALAKKIL [TP10 dimer, TP10 (dimer)] | 1 | 99 | 0 | 100 | <1 (0–2) | 17% (30) | 0 | 0% (30) | 2 (0–14) | 37% (30) | 82 | 60 |  |  |  | 
KFPKFRRGIPFLFVGPSGKFPKFRRGIPFLFV [Vida 3 dimer] | 58 | 38 | 4 | 96 |  |  |  |  |  |  |  |  | above 50% | 0 | 100 | 100
